Where two headings read alike, the source gives them in different places.
What was measured:
[1] = system: Respiratory Syncytial Virus (RSV) long strain; assay: microbe, parasite or virus in culture; format: cell-based; details: human respiratory syncytial virus, Tables A and B list compounds by EC50 band
Procedure, shortened: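 HEp-2 cells infected with 100 TCID50 virus per well, compounds in duplicate, 9-point 1/3 dilutions from 100 μM or 1 μM, 1% DMSO. After 5 days at 37 °C, cell viability (CPE protection) read by CCK-8 absorbance at 450 nm, 630 nm background.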

[2] = Cytotoxicity Determination (CCK-8, without addition of virus); format: cell-based; details: human, 50% cytotoxicity concentration (CC50)
Procedure, shortened: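 HEp-2 cells were seeded at 1,500 cells/well one day before compound addition. Compounds were tested without virus in duplicate over 7 points from 100 μM in 1/2 steps, with 1% final DMSO, 5 days at 37 °C, 5% CO2. Viability was read by CCK-8 after 3-4 hours.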

recombinant RSV complex = recombinant RSV complex (Human respiratory syncytial virus A, UniProt P28887); assay: RSV Polymerase Inhibition Assay; format: biochemical
Chain of recombinant RSV complex (P28887 whole entry): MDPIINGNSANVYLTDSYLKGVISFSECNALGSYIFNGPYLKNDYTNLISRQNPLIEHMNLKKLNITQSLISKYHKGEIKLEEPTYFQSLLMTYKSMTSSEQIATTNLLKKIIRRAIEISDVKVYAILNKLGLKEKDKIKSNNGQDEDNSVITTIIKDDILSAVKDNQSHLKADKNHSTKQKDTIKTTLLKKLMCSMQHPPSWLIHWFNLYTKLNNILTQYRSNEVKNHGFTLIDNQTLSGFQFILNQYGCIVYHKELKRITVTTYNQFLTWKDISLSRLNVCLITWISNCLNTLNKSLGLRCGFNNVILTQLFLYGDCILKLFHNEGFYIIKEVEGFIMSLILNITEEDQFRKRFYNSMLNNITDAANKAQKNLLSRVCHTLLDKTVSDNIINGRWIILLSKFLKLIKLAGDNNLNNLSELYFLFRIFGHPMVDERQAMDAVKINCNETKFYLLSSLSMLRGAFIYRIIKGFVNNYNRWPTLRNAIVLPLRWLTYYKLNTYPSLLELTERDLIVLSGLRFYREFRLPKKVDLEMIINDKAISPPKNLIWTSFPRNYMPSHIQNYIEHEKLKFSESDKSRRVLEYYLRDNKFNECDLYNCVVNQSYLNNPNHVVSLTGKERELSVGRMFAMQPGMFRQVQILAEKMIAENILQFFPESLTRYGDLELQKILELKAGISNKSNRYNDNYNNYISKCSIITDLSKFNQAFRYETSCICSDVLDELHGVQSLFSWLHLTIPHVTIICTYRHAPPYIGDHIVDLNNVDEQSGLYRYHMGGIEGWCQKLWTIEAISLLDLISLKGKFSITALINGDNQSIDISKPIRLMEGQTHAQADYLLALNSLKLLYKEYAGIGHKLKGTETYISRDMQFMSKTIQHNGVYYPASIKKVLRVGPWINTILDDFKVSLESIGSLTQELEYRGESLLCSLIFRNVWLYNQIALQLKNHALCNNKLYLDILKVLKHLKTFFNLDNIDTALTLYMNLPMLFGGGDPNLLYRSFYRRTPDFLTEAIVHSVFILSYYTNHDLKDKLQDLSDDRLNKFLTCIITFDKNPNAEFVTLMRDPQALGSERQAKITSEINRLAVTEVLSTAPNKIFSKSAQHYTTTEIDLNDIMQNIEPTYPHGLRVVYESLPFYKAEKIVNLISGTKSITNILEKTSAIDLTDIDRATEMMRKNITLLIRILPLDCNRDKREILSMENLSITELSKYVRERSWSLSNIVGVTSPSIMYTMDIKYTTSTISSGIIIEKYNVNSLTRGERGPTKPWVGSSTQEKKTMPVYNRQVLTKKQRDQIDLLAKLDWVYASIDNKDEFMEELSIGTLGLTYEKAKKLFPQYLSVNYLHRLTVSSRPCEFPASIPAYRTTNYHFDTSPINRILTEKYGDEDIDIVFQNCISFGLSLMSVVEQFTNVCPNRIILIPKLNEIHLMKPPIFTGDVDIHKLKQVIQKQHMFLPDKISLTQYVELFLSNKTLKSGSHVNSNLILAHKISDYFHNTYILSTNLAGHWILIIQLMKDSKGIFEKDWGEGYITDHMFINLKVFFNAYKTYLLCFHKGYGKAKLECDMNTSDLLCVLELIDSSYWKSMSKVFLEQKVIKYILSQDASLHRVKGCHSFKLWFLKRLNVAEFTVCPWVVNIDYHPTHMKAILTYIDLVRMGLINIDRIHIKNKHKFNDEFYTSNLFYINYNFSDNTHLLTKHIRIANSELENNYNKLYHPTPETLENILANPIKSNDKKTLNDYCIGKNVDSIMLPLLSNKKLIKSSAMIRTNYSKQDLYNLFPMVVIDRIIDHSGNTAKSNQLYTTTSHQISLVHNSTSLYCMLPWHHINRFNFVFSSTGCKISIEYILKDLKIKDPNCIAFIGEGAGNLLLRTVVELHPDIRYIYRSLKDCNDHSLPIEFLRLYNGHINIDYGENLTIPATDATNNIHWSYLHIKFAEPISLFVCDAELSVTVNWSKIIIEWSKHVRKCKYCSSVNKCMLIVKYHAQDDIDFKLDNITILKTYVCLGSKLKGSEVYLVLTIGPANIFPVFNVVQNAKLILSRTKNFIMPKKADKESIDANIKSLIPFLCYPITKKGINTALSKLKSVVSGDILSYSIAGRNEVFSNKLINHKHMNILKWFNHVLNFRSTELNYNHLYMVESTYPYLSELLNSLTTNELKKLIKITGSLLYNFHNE
Chain of recombinant RSV complex (P03421 whole entry, further chain): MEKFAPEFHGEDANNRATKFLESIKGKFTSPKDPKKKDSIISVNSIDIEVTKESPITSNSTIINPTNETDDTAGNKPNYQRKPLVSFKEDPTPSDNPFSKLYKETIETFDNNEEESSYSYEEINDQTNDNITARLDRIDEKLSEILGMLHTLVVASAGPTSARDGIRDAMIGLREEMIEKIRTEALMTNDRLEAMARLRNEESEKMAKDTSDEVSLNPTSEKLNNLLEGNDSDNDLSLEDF
Procedure, shortened: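 10 nM recombinant RSV polymerase complex in Tris-HCl pH 7.5, 6 mM MgCl2 with RNA oligonucleotide template and radionucleotides, incubated 2 h at 30 °C with increasing inhibitor concentrations. Reaction stopped with EDTA; radiolabeled RNA product counted by scintillation.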

RSV replicon = assay: microbe, parasite or virus in culture; format: cell-based; details: human respiratory syncytial virus, read-out: EC50, the concentration of the drug required for reducing RSV replicon RNA by 50%
Procedure: The Renilla Luciferase Assay System (Promega, Cat. #E2820) was used to measure anti-RSV replicon activity. […] Luminescence was recorded using a Perkin Elmer multilabel counter Victor3V. EC50, the concentration of the drug required for reducing RSV replicon RNA by 50% in relation to the untreated cell control value, was calculated from the plot of percentage reductions of the optical density (OD) value against the drug concentrations using the Microsoft Excel forecast function.

[3] = HEp-2, 120 h, read-out: 50% effective concentration (EC50), HEp-2 cells infected with RSV long strain, 5 days, CCK-8 readout
[4] = 120 h, read-out: 50% effective concentration (EC50), HEp-2 cells infected with RSV long strain, 5 days, CCK-8 readout

Compound	EC50 [1, 3] [µM]	CC50 at 5 days [2] [µM]	IC50 (recombinant RSV complex) [µM]	EC50 (RSV replicon) [µM]	EC50 [1, 4] [µM]
CCOc1ccc(C(=O)NCC(C)(O)c2ccc(OC)c(-c3c[nH]c4c(F)cccc34)n2)cc1OC (racemic) [Compound 116]	< 1	10 to 100	< 1	< 1	
COc1cc(C(=O)NCC(C)(O)c2ccc(OC)c(-c3c[nH]c4c(F)cccc34)n2)ccc1OCCO (racemic) [Compound 117]	< 1	10 to 100	< 1	< 1	
COc1cc(C(=O)NCC(C)(O)c2ccc(OC)c(-c3ccc(F)c(Br)c3)n2)ccc1OCCF (racemic) [Compound 118]	< 1	10 to 100	< 1	< 1	
COc1cc(C(=O)NCC(C)(O)c2ccc(OC)c(-c3ccc(F)c(Cl)c3)n2)ccc1OCCO (racemic) [Compound 120]		> 100	< 1	< 1	< 1
CCC(O)(CNC(=O)c1ccc(OCCF)c(OC)c1)c1ccc(OC)c(-c2ccc(F)c(Cl)c2)n1 (racemic) [Compound 122]	< 1	10 to 100	< 1	< 1	
COc1cc(C(=O)NCC(C)(O)c2cc3c(c(-c4ccc(F)c(Cl)c4)n2)OCC3(C)C)ccc1OCCO (racemic) [Compound 166]	< 1	10 to 100	< 1	< 1	
CCC(O)(CNC(=O)c1ccc(OCCF)c(OC)c1)c1ccc(OC)c(-c2ccc(F)c(Cl)c2)n1 (single isomer, unassigned) [Compound 122a]	< 1	10 to 100	< 1	< 1	
COc1cc(C(=O)NCC(O)(c2ccc(OC)c(-c3ccc(F)c(Cl)c3)n2)C2CC2)ccc1OCC(N)=O (single isomer, unassigned) [Compound 431]	< 1	10 to 100	< 1	< 1	
COc1cc(C(=O)NCC(O)(c2cc(C(C)(N)CF)cc(-c3ccc(F)cc3)n2)C(F)(F)F)ccc1OCCO (single isomer, unassigned) [Compound 664]	< 1	10 to 100	< 1	< 1	
COc1ccc(C(=O)NCC(O)c2cccc(-c3csc4c(F)cccc34)n2)cc1OC (stereo not shown) [Compound 106]		10 to 100		< 1	1 to 50
CCc1ccc(C(C)(O)CNC(=O)c2ccc(OC)c(OC)c2)nc1-c1csc2c(F)cccc12 (stereo not shown) [Compound 115]	< 1	10 to 100	< 1	< 1	
COc1cc(C(=O)NCC(C)(O)c2ccc(OC)c(-c3ccc(F)c(Cl)c3)n2)ccc1OCCF (stereo not shown) [Compound 119]	< 1	10 to 100	< 1	< 1	
COc1cc(C(=O)NCC(O)(c2ccc(OC)c(-c3ccc(F)c(Cl)c3)n2)C2CC2)ccc1OCCF (stereo not shown) [Compound 123]	< 1	> 100	< 1	< 1	
CC#CC(O)(CNC(=O)c1ccc(OCCF)c(OC)c1)c1ccc(OC)c(-c2ccc(F)c(Cl)c2)n1 (stereo not shown) [Compound 124]	< 1	10 to 100	< 10	< 1	
COc1cc(C(=O)NCC(O)(c2ccc(OC)c(-c3ccc(F)c(Cl)c3)n2)C(C)C)ccc1OCCF (stereo not shown) [Compound 125]	< 1	10 to 100	< 1	< 1	
C=CC(O)(CNC(=O)c1ccc(OCCF)c(OC)c1)c1ccc(OC)c(-c2ccc(F)c(Cl)c2)n1 (stereo not shown) [Compound 126]	< 1	10 to 100	< 1	< 1	
C#CC(O)(CNC(=O)c1ccc(OCCF)c(OC)c1)c1ccc(OC)c(-c2ccc(F)c(Cl)c2)n1 (stereo not shown) [Compound 127]	< 1	10 to 100	< 1	1 to 50	
COc1ccc(C(=O)NCC(=O)c2nc(-c3csc4c(F)cccc34)c3ccccn23)cc1OC [Compound 130]		10 to 100	< 1	< 1	< 1
COc1cc(C(=O)NCC(=O)c2cc3c(c(-c4ccc(F)c(Cl)c4)n2)OCC3(C)C)ccc1OCCO [Compound 140]		10 to 100	< 1	< 1	< 1
COc1cc(C(=O)NCC(C)(O)c2cccc(-c3csc4c(F)cccc34)n2)ccc1OCCO (stereo not shown) [Compound 143]	< 1	10 to 100	< 1	< 1	
COc1cc(C(=O)NCC2(c3cccc(-c4csc5c(F)cccc45)n3)COC2)ccc1OCCO [Compound 163]		10 to 100		1 to 50	

Compound	EC50 [1, 3] [µM]	CC50 at 5 days [2] [µM]	IC50 (recombinant RSV complex) [µM]	EC50 (RSV replicon) [µM]	EC50 [1, 4] [µM]
COc1cc(C(=O)NCC(O)(CO)c2ccc(OC)c(-c3ccc(F)c(Cl)c3)n2)ccc1OCCO (stereo not shown) [Compound 176]	< 1	> 100	< 1	< 1	
COc1cc(C(=O)NCC(O)(CNC2CC2)c2ccc(OC)c(-c3ccc(F)c(Cl)c3)n2)ccc1OCCO (stereo not shown) [Compound 189]	< 1	> 100	< 1	< 1	
COc1cc(C(=O)NCC(O)(c2ccc(OC)c(-c3ccc(F)c(Cl)c3)n2)C(F)(F)F)ccc1OC[C@@H](C)O (stereo partly shown) [Compound 336]	< 1	10 to 100		< 1	
COc1cc(C(=O)NCC(O)(c2ccc(OC)c(-c3ccc(F)c(Cl)c3)n2)C(F)(F)F)ccc1OC(C)C(N)=O (stereo not shown) [Compound 338]	< 1	10 to 100		< 1	
COc1ccc(C(O)(CNC(=O)c2cc(OC)c3ncccc3c2)C(F)(F)F)nc1-c1ccc(F)c(Cl)c1 (stereo not shown) [Compound 339]	< 1	10 to 100		< 1	
COc1cc(C(=O)NCC(O)(c2cc3c(c(-c4ccc(F)c(Cl)c4)n2)OCCC3(C)C)C(F)(F)F)ccc1OC1CC1 (stereo not shown) [Compound 345]	< 1	> 100		< 1	
COc1cc(C(=O)NCC(O)(c2cc3c(c(-c4ccc(F)c(Cl)c4)n2)OCCC3(C)C)C(F)(F)F)ccc1OC[C@@H](C)O (stereo partly shown) [Compound 346]	< 1	10 to 100		< 1	
COc1cc(C(=O)NCC(O)(c2cc3c(c(-c4ccc(F)c(Cl)c4)n2)OCCC3(C)C)C(F)(F)F)ccc1OCC(N)=O (stereo not shown) [Compound 347]	< 1	10 to 100		< 1	
COc1cc(C(=O)NCC(O)(c2cc3c(c(-c4ccc(F)c(Cl)c4)n2)OCCC3(C)C)C(F)(F)F)ccc1OC1CCNC1=O (stereo not shown) [Compound 348]	< 1	10 to 100		< 1	
COc1cc(C(=O)NCC(O)(c2cc(C(C)(C)O)cc(-c3ccc(F)c(Cl)c3)n2)C(F)(F)F)ccc1OC1CC1 (stereo not shown) [Compound 386]		10 to 100	< 1	< 1	
COc1cc(C(=O)NCC(O)(c2cc(C(C)(C)NCCN)cc(-c3ccc(F)c(Cl)c3)n2)C(F)(F)F)ccc1OC1CC1 (stereo not shown) [Compound 508]	< 1		< 1	< 1	
COc1cc(C(=O)NCC(O)(c2cc(C(C)(C)N)cc(-c3c[nH]c4c(F)cccc34)n2)C(F)(F)F)ccc1OC1CC1 (stereo not shown) [Compound 519]	< 1		< 1	< 1	
COc1cc(C(=O)NCC(O)(c2cc(C(C)(C)N)cc(-c3ccc(Cl)cc3)n2)C(F)(F)F)ccc1OC1CC1 (stereo not shown) [Compound 520]			< 1	< 1	< 1
COc1cc(C(=O)NCC(O)(c2cc(C(C)(C)N)cc(-c3ccc(F)c(C(F)(F)F)c3)n2)C(F)(F)F)ccc1OC1CC1 (stereo not shown) [Compound 521]	< 1		< 1	< 1	
COc1cc(C(=O)NCC(O)(c2cc3c(c(-c4ccc(C#N)cc4)n2)OCC3(C)N)C(F)(F)F)ccc1OC1CC1 (stereo not shown) [Compound 542]		10 to 100		< 1	< 1
COc1cc(C(=O)NCC(O)(c2cc(C(C)(C)N)cc(-c3ccc(F)c(Cl)c3)n2)C(F)(F)F)ccc1OCC(=O)O (stereo not shown) [Compound 578]		10 to 100	< 1	< 1	
COc1cc(C(=O)NC[C@](O)(c2cc3c(c(-c4ccc(C#N)cc4)n2)OC[C@]3(C)N)C(F)(F)F)ccc1OCCO [Compound 604d]	< 1		< 1	< 1	
COc1cc(C(=O)NCC(O)(c2cc(C(C)(C)N)cc(-c3ccc(F)c(Cl)c3)n2)C2CC2)ccc1OC1CC1 (stereo not shown) [Compound 667]	< 1		< 1	< 1	
COc1cc(C(=O)NCC(O)(c2cc3c(c(-c4ccc(CO)cc4)n2)OCC3(C)N)C(F)(F)F)ccc1OCCO (stereo not shown) [Compound 672]		> 100	< 10	< 1	
COc1cc(C(=O)NCC(O)(c2cc3c(c(-c4ccc(C(=O)O)cc4)n2)OCC3(C)N)C(F)(F)F)ccc1OCCO (stereo not shown) [Compound 675]		> 100		< 1	

— patent publication US11021444B2, “Antiviral compounds” (priority 2013, dated 2021)
